For the test, the target named is CDK9/CycT1 (Homo sapiens, UniProt P50750). As to the kind of experiment: ADP-Glo kinase assay on CDK enzymatic activity, CDK9/CycT1. As to conditions: 10 concentrations from 10 μM, 4-fold, 60 min room temperature. Format: biochemical. The source says:
Test samples: the compounds of the present invention, having structures shown above.
ADP-Glo Kinase Assay (ADP-Glo kinase kit), DMSO (dimethyl sulfoxide), CDK9/CycT1 (cyclin-dependent kinase 9/cyclin T1), CDK tide (cyclin-dependent kinase substrate peptide fragments), CDK1/CycE1 (cyclin-dependent kinase 1/cyclin E1), CDK2/CycA2 (cyclin-dependent kinase 2/cyclin A2), CDK3/CycE1 (cyclin-dependent kinase 3/cyclin E1), CDK4/CycD3 (cyclin-dependent kinase 4/cyclin D3), CDK5/p25NCK (cyclin-dependent kinase 5/p25), and AZD 4573.
A 384-well white plate, a 96-well plate, a microplate oscillator, a centrifuge, and a microplate reader.
The compounds were dissolved in DMSO and diluted 4-fold in the 96-well plate to obtain stock solutions with 10 concentration gradients, and added into a 384-well plate system to obtain a series of 10 concentration gradients of compound solutions with final concentrations of 10 μM starting and 4-fold gradient decreasing. 1 μM AZD4573 was used as compound positive control (PC) and 0.5% DMSO as solvent vehicle control (VC), ten duplicated wells each for PC and VC.
1 μL of compound solution and 2 μL of 2× kinase solution were transferred to each well, and the plate was centrifuged at 1000 g for 30 s and left at room temperature for 10 min. A mixture of 2× substrate and ATP was prepared in 1× kinase buffer. The reaction was started after adding 2 μL of substrate and ATP into the plate. The plate was centrifuged at 1000 g for 30 s. The assay plate was closed and left at room temperature for 60 min. The reaction system was added with 4 μL of ADP Glo reagent, centrifuged at 1000 rpm for 1 min, and incubated at room temperature for 40 min. The reaction system was added with 8 μL of kinase assay reagent, centrifuged at 1000 rpm for 1 min and incubated at room temperature for 40 min. The […] was read on Biotek.
The inhibition rate was calculated according to the following formula: […]
Lumcmpd: compound fluorescence reading; Lumpositive: average value of the fluorescence reading of positive compound control; Lumvehicle: average value of the fluorescence reading of solvent vehicle control.
IC50 values were fitted using GraphPad 7.0 based on inhibition rates of compounds at different concentrations.
Chain of CDK9/CycT1 (P50750 whole entry): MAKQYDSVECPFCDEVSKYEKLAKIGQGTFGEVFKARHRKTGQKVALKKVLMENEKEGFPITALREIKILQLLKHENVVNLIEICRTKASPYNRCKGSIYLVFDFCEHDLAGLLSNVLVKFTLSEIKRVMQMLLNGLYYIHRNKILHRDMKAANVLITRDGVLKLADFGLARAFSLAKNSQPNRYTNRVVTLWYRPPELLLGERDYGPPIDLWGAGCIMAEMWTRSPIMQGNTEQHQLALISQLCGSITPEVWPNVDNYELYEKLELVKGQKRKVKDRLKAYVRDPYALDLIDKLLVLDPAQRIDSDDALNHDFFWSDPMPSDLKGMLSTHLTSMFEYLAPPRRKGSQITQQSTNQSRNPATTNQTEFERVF
Chain of CDK9/CycT1 (O60563 whole entry partner): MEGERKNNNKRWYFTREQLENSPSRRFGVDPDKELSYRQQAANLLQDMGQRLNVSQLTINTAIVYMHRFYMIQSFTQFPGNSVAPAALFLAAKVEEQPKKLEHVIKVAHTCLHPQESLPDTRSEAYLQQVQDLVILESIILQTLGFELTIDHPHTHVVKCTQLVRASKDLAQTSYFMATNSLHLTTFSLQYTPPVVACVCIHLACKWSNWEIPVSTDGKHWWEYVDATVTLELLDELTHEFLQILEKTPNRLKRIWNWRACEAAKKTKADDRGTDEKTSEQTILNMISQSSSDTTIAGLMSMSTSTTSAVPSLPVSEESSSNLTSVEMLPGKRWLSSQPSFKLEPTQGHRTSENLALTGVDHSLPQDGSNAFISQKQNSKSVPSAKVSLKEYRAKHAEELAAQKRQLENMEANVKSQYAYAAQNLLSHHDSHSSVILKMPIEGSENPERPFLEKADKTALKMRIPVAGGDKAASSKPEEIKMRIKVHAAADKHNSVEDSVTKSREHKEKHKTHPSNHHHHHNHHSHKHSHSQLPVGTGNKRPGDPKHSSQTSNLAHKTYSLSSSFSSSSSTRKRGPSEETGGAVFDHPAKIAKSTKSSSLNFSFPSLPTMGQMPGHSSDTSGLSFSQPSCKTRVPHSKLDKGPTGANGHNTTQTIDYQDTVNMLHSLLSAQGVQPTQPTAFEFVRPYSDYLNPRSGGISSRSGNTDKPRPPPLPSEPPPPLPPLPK
In the case of `CC(C)Nc1nc(C(F)F)c(C#N)c2cnc(N[C@H]3CCCNC3)nc12` [Compound 111, (S)-6-(difluoromethyl)-8-(isopropylamino)-2-(piperidin-3-ylamino)pyrido[3,4-d]pyrimidine-5-carbonitrile], 69 nM corresponded to half-maximal inhibition (IC50).

As for `CC(C)Nc1nc(C#N)cc2cnc(NC3CCS(=O)(=O)CC3)nc12` [Compound 120, 2-((1,1-dioxidotetrahydro-2H-thiopyran-4-yl)amino)-8-(isopropylamino)pyrido[3,4-d]pyrimidine-6-carbonitrile], half-maximal inhibition (IC50) required 32 nM.

Regarding `CC(C)Nc1nc(C#N)cc2cnc(N[C@@H]3CCNC3=O)nc12` [Compound 124, (R)-8-(isopropylamino)-2-((2-oxopyrrolidin-3-yl)amino)pyrido[3,4-d]pyrimidine-6-carbonitrile], the IC50 (usually the midpoint of a concentration-inhibition curve) was found to be 26 nM.

`N#Cc1cc2cnc(N[C@H]3CCCNC3)cc2c(O[C@H]2CCOC2)n1` [Compound 155, 7-(((S)-piperidin-3-yl)amino)-1-(((S)-tetrahydrofuran-3-yl)oxy)-2,6-naphthyridine-3-carbonitrile] displayed an IC50 of 33 nM.

As to `CC(C)Nc1nc(C#N)cc2cnc(N[C@H]3CCCC[C@@H]3O)cc12` [Compound 156, 7-(((1S,2S)-2-hydroxycyclohexyl)amino)-1-(isopropylamino)-2,6-naphthyridine-3-carbonitrile], the IC50 was 14 nM.

Compound `CC(C)Nc1nc(C#N)cc2cnc(N[C@@H]3CCCC[C@H]3O)cc12` [Compound 159, 7-(((1R,2R)-2-hydroxycyclohexyl)amino)-1-(isopropylamino)-2,6-naphthyridine-3-carbonitrile] displayed an IC50 of 22 nM.

`CC(C)Nc1nc(C#N)cc2cnc(N[C@H]3CCCC[C@H]3O)cc12` [Compound 160, 7-(((1S,2R)-2-hydroxycyclohexyl)amino)-1-(isopropylamino)-2,6-naphthyridine-3-carbonitrile] came in with an IC50 of 26 nM.

In the case of `CC(C)Nc1nc(C#N)cc2cnc(N[C@@H]3CCCC[C@@H]3O)cc12` [Compound 161, 7-(((1R,2S)-2-hydroxycyclohexyl)amino)-1-(isopropylamino)-2,6-naphthyridine-3-carbonitrile], the IC50 is 14 nM.

For `CC(C)Nc1nc(C#N)cc2cnc(N[C@@H]3CCC[C@H]3N)cc12` [Compound 165, 7-(((1R,2R)-2-aminocyclopentyl)amino)-1-(isopropylamino)-2,6-naphthyridine-3-carbonitrile], half-maximal inhibition (IC50) was put at 47 nM.

In turn, `N#Cc1cc2cnc(N[C@H]3C[C@@H](O)C3)cc2c(N[C@@H]2CCOC2)n1` [Compound 176, 7-(((1s,3S)-3-hydroxycyclobutyl)amino)-1-(((R)-tetrahydrofuran-3-yl)amino)-2,6-naphthyridine-3-carbonitrile] returned an IC50 of 3 nM.

Compound `N#Cc1cc2cnc(N[C@H]3CCCNC3)cc2c(NC2COC2)n1` [Compound 182, (S)-1-(oxetan-3-ylamino)-7-(piperidin-3-ylamino)-2,6-naphthyridine-3-carbonitrile] registered an IC50 of 15 nM.

Compound `CCC(CC)c1nc(C#N)cc2cnc(N[C@H]3CCCNC3)cc12` [Compound 188, (S)-1-(pentan-3-yl)-7-(piperidin-3-ylamino)-2,6-naphthyridine-3-carbonitrile] yielded an IC50 of 10 nM.

As to `CSc1nc(C#N)cc2cnc(N[C@H]3CCCNC3)cc12` [Compound 192, (S)-1-(methylthio)-7-(piperidin-3-ylamino)-2,6-naphthyridine-3-carbonitrile], the IC50 was determined as 11 nM.

The compound `CCOc1nc(C#N)cc2cnc(N[C@H]3CCCNC3)cc12` [Compound 198, (S)-1-ethoxy-7-(piperidin-3-ylamino)-2,6-naphthyridine-3-carbonitrile] returned an IC50 of 12 nM.

`N#Cc1cc2cnc(N[C@H]3CCCNC3)cc2c(OC2CCC2)n1` [Compound 199, (S)-1-cyclobutoxy-7-(piperidin-3-ylamino)-2,6-naphthyridine-3-carbonitrile] came in with an IC50 of 4 nM.

In turn, `CC(C)(C)Nc1nc(C(F)F)cc2cnc(N[C@H]3C[C@@H](N)C3)cc12` [Compound 203, N^7-((1s,3s)-3-aminocyclobutyl)-N^1-(tert-butyl)-3-(difluoromethyl)-2,6-naphthyridine-1,7-diamine] displayed an IC50 of 1 nM.

In turn, `CC(C)Nc1nc(C#N)cc2cnc(NC3CCN(CC(=O)N(C)C)CC3)nc12` [Compound C3, 2-(4-((6-cyano-8-(isopropylamino)pyrido[3,4-d]pyrimidin-2-yl)amino)piperidin-1-yl)-N,N-dimethylacetamide] returned an IC50 of 27 nM.

Take `CC(C)Nc1nc(C#N)cc2cnc(N[C@H]3C[C@](C)(O)C3)nc12` [Compound C11, 2-(((1r,3r)-3-hydroxy-3-methylcyclobutyl)amino)-8-(isopropylamino)pyrido[3,4-d]pyrimidine-6-carbonitrile]: the IC50 was found to be 1 nM.

For the compound `CO[C@H]1C[C@H](Nc2ncc3cc(C#N)nc(NC(C)C)c3n2)C1` [Compound C12, 8-(isopropylamino)-2-(((1r,3r)-3-methoxycyclobutyl)amino)pyrido[3,4-d]pyrimidine-6-carbonitrile], the IC50 is 2 nM.

In turn, `CC(C)Nc1nc(C#N)cc2cnc(N[C@H]3C[C@@H](CN)C3)nc12` [Compound C17, 2-(((1s,3s)-3-(aminomethyl)cyclobutyl)amino)-8-(isopropylamino)pyrido[3,4-d]pyrimidine-6-carbonitrile] yielded a concentration for half-maximal inhibition (IC50) of 2 nM.

Take `CC(C)Nc1nc(C#N)cc2cnc(N[C@H]3C[C@H](N4CCOCC4)C3)nc12` [Compound C21, 8-(isopropylamino)-2-(((1r,3r)-3-morpholinocyclobutyl)amino)pyrido[3,4-d]pyrimidine-6-carbonitrile]: the IC50 worked out at 4 nM.

The compound `CC(=O)N1CCN([C@H]2C[C@H](Nc3ncc4cc(C#N)nc(NC(C)C)c4n3)C2)CC1` [Compound C32, 2-(((1r,3r)-3-(4-acetylpiperazin-1-yl)cyclobutyl)amino)-8-(isopropylamino)pyrido[3,4-d]pyrimidine-6-carbonitrile] gave an IC50 of 4 nM.

In turn, `CC(C)(C)Nc1nc(C#N)cc2cnc(N[C@H]3C[C@](C)(N)C3)nc12` [Compound C34, 2-(((1r,3r)-3-amino-3-methylcyclobutyl)amino)-8-(tert-butylamino)pyrido[3,4-d]pyrimidine-6-carbonitrile] had a 50% inhibitory concentration (IC50) of 1 nM.

On to `CC(C)Nc1nc(C#N)cc2cnc(N[C@H]3C[C@@]4(CCN4)C3)nc12` [Compound C37, 2-(((4r,6s)-1-azaspiro[3.3]heptan-6-yl)amino)-8-(isopropylamino)pyrido[3,4-d]pyrimidine-6-carbonitrile], for which the half-maximal inhibitory concentration (IC50) amounted to 2 nM.

In turn, `CCNc1nc(C#N)cc2cnc(N[C@H]3C[C@](C)(N)C3)nc12` [Compound C38, 2-(((1r,3r)-3-amino-3-methylcyclobutyl)amino)-8-(ethylamino)pyrido[3,4-d]pyrimidine-6-carbonitrile] returned a half-inhibitory concentration (IC50) of 1 nM.

Take `N#Cc1cc2cnc(N[C@H]3C[C@H](N)C3)nc2c(N[C@@H]2CCCOC2)n1` [Compound C39, 2-(((1r,3R)-3-aminocyclobutyl)amino)-8-(((R)-tetrahydro-2H-pyran-3-yl)amino)pyrido[3,4-d]pyrimidine-6-carbonitrile]: the IC50 came out at 1 nM.

As for `CN(C)[C@H]1CC[C@H](Nc2ncc3cc(C#N)nc(N[C@@H]4CCOC4)c3n2)CC1` [Compound C40, 2-(((1r,4R)-4-(dimethylamino)cyclohexyl)amino)-8-(((R)-tetrahydrofuran-3-yl)amino)pyrido[3,4-d]pyrimidine-6-carbonitrile], half-maximal inhibition (IC50) required 5 nM.

For `COC[C@H](C)Nc1nc(C#N)cc2cnc(N[C@H]3C[C@H](N)C3)nc12` [Compound C42, 2-(((1r,3S)-3-aminocyclobutyl)amino)-8-(((S)-1-methoxypropan-2-yl)amino)pyrido[3,4-d]pyrimidine-6-carbonitrile], the IC50 worked out at 2 nM.

`CCNc1nc(C#N)cc2cnc(N[C@H]3C[C@H](NC)C3)nc12` [Compound C43, 8-(ethylamino)-2-(((1r,3r)-3-(methylamino)cyclobutyl)amino)pyrido[3,4-d]pyrimidine-6-carbonitrile]: the IC50 is 1 nM.

For the compound `CC(C)Nc1nc(C#N)cc2cnc(N[C@@H]3CCCNC3)nc12` [Compound C44, (R)-8-(isopropylamino)-2-(piperidin-3-ylamino)pyrido[3,4-d]pyrimidine-6-carbonitrile], half-maximal inhibition (IC50) required 20 nM.

The compound `CCOc1nc(C#N)cc2cnc(N[C@H]3C[C@H](N)C3)nc12` [Compound C47, 2-(((1r,3r)-3-aminocyclobutyl)amino)-8-ethoxypyrido[3,4-d]pyrimidine-6-carbonitrile] displayed an IC50 of 24 nM.

(Values after patent US20250163043A1 (TRANSTHERA SCIENCES (NANJING), INC., priority 2021, published 2025).)
